{"source": "patent US20100000032A1", "about": "“PHENOXAZINE DYES” (Wetlands Incubator sprl, priority 2008, published 2010)", "key": {"[1]": {"test": "Washing fastness of dyeing, ISO 105 C06: A2S", "assay_type": "physicochemical", "conditions": "for Washing fastness, staining, acrylic / Washing fastness, staining, cellulose acetate / Washing fastness, staining, cotton / Washing fastness, staining, nylon / Washing fastness, staining, polyester / Washing fastness, staining, wool: rating 1-5; for Washing fastness, colour change: polyamide 6 knitted fabric, rating 5 = no colour change, 1 = high colour change", "method": "(§1) The fastness properties of the dyeings (textile and leather) were measured in accordance with ISO standards mentioned in Table 3. The results shown in Table 3 are the visual assessment described in ISO105-A02: 1993 textiles—test for colour fastness—part A02. On this scale, a rating of 5 means no colour change and a rating of 1 means a high colour change."}, "[2]": {"test": "Water fastness of dyeing, ISO 105 E01", "assay_type": "physicochemical", "conditions": "for Water fastness, staining, acrylic / Water fastness, staining, cellulose acetate / Water fastness, staining, cotton / Water fastness, staining, nylon / Water fastness, staining, polyester / Water fastness, staining, wool: rating 1-5; for Water fastness, colour change: polyamide 6 knitted fabric, rating 5 = no colour change, 1 = high colour change", "method": "as §1"}, "[3]": {"tested_on": "rainbow trout gonad (RTG-2) fish cell line", "test": "In vitro toxicity, neutral red uptake", "assay_type": "cell-based", "conditions": "Oncorhynchus mykiss, concentration at which 50% of the cells die, exposure at least 48 hr, highest concentration tested 0.5 g/L, read-out: NRTG-2 cells IC50", "method": "(§2) The toxicity of compounds 17 and 18 were assessed with an in vitro method using the Caco-2 human intestinal cell line and the rainbow trout gonad (RTG-2) fish cell line. […] Subsequently, the cells were exposed to a series of concentrations of the test compounds, and two blanks, for at least 48 hr until 90% confluence was attained in the blanks. The highest concentration tested being 0.5 g/L. Thereafter, the exposure medium containing the test compounds was decanted and the cells in the microplate wells were gently washed with phosphate buffered saline solution. In order to measure the number of viable cells remaining after the exposure to the test compounds, the cells were exposed to a solution of neutral red in cell culture medium for 3 hr. […] Finally, the neutral red solution was decanted, the wells were again gently washed and then a solution of 1% acetic acid in 50% ethanol was added to the wells to dissolve the neutral red taken up by the viable cells. The absorbance of each well at 540 nm was measure with an appropriate microplate reader. The amount of neutral red present in each well is an indication of the number of viable cells and when compared to the values for the blanks can be used to calculate a percentage of cell death. An IC50 value, the concentration of the test compounds at which 50% of the cells die, can be determined if at least one of the tested compounds produces more than 50% cell death and at least one produces less; the results concerning compounds 17 and 18 are given in Table 4. If none of the tested concentrations produces more than 50% cell death, than an estimating can be made if at least some effect is noticeable. Comparing IC50 values among test compounds and with known toxicants allows for an assessment of their relative toxicities."}, "[4]": {"tested_on": "Caco-2 human intestinal cell line", "test": "In vitro toxicity, neutral red uptake", "assay_type": "cell-based", "conditions": "concentration at which 50% of the cells die, exposure at least 48 hr, highest concentration tested 0.5 g/L", "method": "as §2"}, "[5]": {"test": "Chlorinated water fastness of dyeing, ISO 105 E03", "assay_type": "physicochemical", "conditions": "polyamide 6 knitted fabric, rating 5 = no colour change, 1 = high colour change", "method": "as §1"}, "[6]": {"test": "Light fastness of dyeing, ISO 105 B02", "assay_type": "physicochemical", "conditions": "polyamide 6 knitted fabric, rating 5 = no colour change, 1 = high colour change", "method": "as §1"}}}
{"smiles": "Nc1c(S(=O)(=O)O)c2nc3c(S(=O)(=O)O)cccc3oc-2cc1=O", "note": "[Compound 17, 2-Amino-3oxo-3H-phenoxazine-1,9-disulfonic acid]", "values": [{"measurement": "Washing fastness, staining, acrylic", "setting": "[1]; 2% omf", "value": "4/5"}, {"measurement": "Washing fastness, staining, cellulose acetate", "setting": "[1]; 2% omf", "value": "4/5"}, {"measurement": "Washing fastness, staining, cotton", "setting": "[1]; 2% omf", "value": "4/5"}, {"measurement": "Washing fastness, staining, nylon", "setting": "[1]; 2% omf", "value": "3/4"}, {"measurement": "Washing fastness, staining, polyester", "setting": "[1]; 2% omf", "value": "4/5"}, {"measurement": "Washing fastness, staining, wool", "setting": "[1]; 2% omf", "value": 4}, {"measurement": "Washing fastness, colour change", "setting": "[1]; 2% omf", "value": 3}, {"measurement": "Water fastness, staining, acrylic", "setting": "[2]; 2% omf", "value": "4/5"}, {"measurement": "Water fastness, staining, cellulose acetate", "setting": "[2]; 2% omf", "value": "4/5"}, {"measurement": "Water fastness, staining, cotton", "setting": "[2]; 2% omf", "value": "4/5"}, {"measurement": "Water fastness, staining, nylon", "setting": "[2]; 2% omf", "value": "3/4"}, {"measurement": "Water fastness, staining, polyester", "setting": "[2]; 2% omf", "value": "4/5"}, {"measurement": "Water fastness, staining, wool", "setting": "[2]; 2% omf", "value": 4}, {"measurement": "Water fastness, colour change", "setting": "[2]; 2% omf", "value": 3}, {"measurement": "IC50", "setting": "[3]", "value": "> 780", "unit": "µg/mL"}, {"measurement": "IC50", "setting": "[4]", "value": "> 550", "unit": "µg/mL"}, {"measurement": "Chlorinated water fastness, colour change", "setting": "[5]; 2% omf", "value": 3}, {"measurement": "Light fastness", "setting": "[6]; 2% omf", "value": ">3"}]}
{"smiles": "Nc1cc2nc3cc(S(=O)(=O)O)ccc3oc-2cc1=O", "note": "[Compound 18, 2-Amino-3oxo-3H-phenoxazine-8-sulfonic acid]", "values": [{"measurement": "Washing fastness, staining, acrylic", "setting": "[1]; 1% omf", "value": "4/5"}, {"measurement": "Washing fastness, staining, cellulose acetate", "setting": "[1]; 1% omf", "value": "4/5"}, {"measurement": "Washing fastness, staining, cotton", "setting": "[1]; 1% omf", "value": "4/5"}, {"measurement": "Washing fastness, staining, nylon", "setting": "[1]; 1% omf", "value": "4/5"}, {"measurement": "Washing fastness, staining, polyester", "setting": "[1]; 1% omf", "value": "4/5"}, {"measurement": "Washing fastness, staining, wool", "setting": "[1]; 1% omf", "value": "4/5"}, {"measurement": "Washing fastness, colour change", "setting": "[1]; 1% omf", "value": 4}, {"measurement": "Water fastness, staining, acrylic", "setting": "[2]; 1% omf", "value": "4/5"}, {"measurement": "Water fastness, staining, cellulose acetate", "setting": "[2]; 1% omf", "value": 4}, {"measurement": "Water fastness, staining, cotton", "setting": "[2]; 1% omf", "value": 4}, {"measurement": "Water fastness, staining, nylon", "setting": "[2]; 1% omf", "value": 3}, {"measurement": "Water fastness, staining, polyester", "setting": "[2]; 1% omf", "value": "4/5"}, {"measurement": "Water fastness, staining, wool", "setting": "[2]; 1% omf", "value": "2/3"}, {"measurement": "Water fastness, colour change", "setting": "[2]; 1% omf", "value": 4}, {"measurement": "IC50", "setting": "[4]", "value": "> 686", "unit": "µg/mL"}, {"measurement": "Chlorinated water fastness, colour change", "setting": "[5]; 1% omf", "value": "3/4"}, {"measurement": "Light fastness", "setting": "[6]; 1% omf", "value": 3}]}
